Results taken from ChEMBL document CHEMBL4190235, “Polysubstituted 2-aminoimidazoles as anti-biofilm and antiproliferative agents: Discovery of potent lead” (Eur J Med Chem, 2017).
Active and inactive are the calls of the source. No cut-off for these calls is given here.

How the values were obtained:
[1] = system: Pseudomonas aeruginosa; assay: Antibiofilm activity against Pseudomonas aeruginosa PA14 after 24 hrs by crystal violet staining based method; assay type: functional
[2] = system: Pseudomonas aeruginosa; assay: Inhibition of planktonic growth of Pseudomonas aeruginosa PA14 cells; assay type: organism-based
[3] = system: Salmonella typhimurium; assay: Antibiofilm activity against Salmonella typhimurium ATCC 14028 after 24 hrs by crystal violet staining based method; assay type: functional, Salmonella enterica subsp. enterica serovar Typhimurium
[4] = system: Salmonella typhimurium; assay: Inhibition of planktonic growth of Salmonella typhimurium ATCC 14028; assay type: organism-based, Salmonella enterica subsp. enterica serovar Typhimurium; details: Salmonella enterica
[5] = system: Staphylococcus aureus; assay: Antibiofilm activity against Staphylococcus aureus SH1000 after 48 hrs by crystal violet staining based method; assay type: functional
[6] = system: Staphylococcus aureus; assay: Inhibition of planktonic growth of Staphylococcus aureus SH1000; assay type: organism-based
[7] = system: A-375; assay: Antiproliferative activity against human A375 cells after 48 hrs by MTT assay; assay type: functional, cell-based; details: A-375, 48 h
[8] = system: MIA PaCa-2; assay: Antiproliferative activity against human MIAPaCa2 cells after 48 hrs by MTT assay; assay type: functional, cell-based; details: MIA PaCa-2, 48 h
[9] = system: A-375; assay: Cytotoxicity against human A375 cells assessed as reduction in cell viability at IC50 concentration after 24 hrs by calcein AM-dye based assay; assay type: functional
[10] = system: MIA PaCa-2; assay: Cytotoxicity against human MIAPaCa2 cells assessed as reduction in cell viability at IC50 concentration after 24 hrs by calcein AM-dye based assay; assay type: functional
[11] = system: A-375; assay: Antiproliferative activity against human A375 cells assessed as reduction in colony forming ability at IC50 concentration after 10 to 14 days by crystal violet-staining based assay; assay type: functional, cell-based
[12] = system: MIA PaCa-2; assay: Antiproliferative activity against human MIAPaCa2 cells assessed as reduction in colony forming ability at IC50 concentration after 10 to 14 days by crystal violet-staining based assay; assay type: functional, cell-based
[13] = system: A-375; assay: Cell cycle arrest in human A375 cells assessed as accumulation at subG1 phase at IC50 concentration after 48 hrs by propidium iodide staining based flow cytometry (reference value: 1.1 +/- 0.4%); assay type: functional
[14] = system: A-375; assay: Cell cycle arrest in human A375 cells assessed as accumulation at G0/G1 phase at IC50 concentration after 48 hrs by propidium iodide staining based flow cytometry (reference value: 64.18 +/- 2.6%); assay type: functional
[15] = system: A-375; assay: Cell cycle arrest in human A375 cells assessed as accumulation at S phase at IC50 concentration after 48 hrs by propidium iodide staining based flow cytometry (reference value: 30.48 +/- 1.4%); assay type: functional
[16] = system: A-375; assay: Cell cycle arrest in human A375 cells assessed as accumulation at G2/M phase at IC50 concentration after 48 hrs by propidium iodide staining based flow cytometry (reference value: 8.18 +/- 2.2%); assay type: functional
[17] = system: MIA PaCa-2; assay: Cell cycle arrest in human MIAPaCa2 cells assessed as accumulation at subG1 phase at IC50 concentration after 48 hrs by propidium iodide staining based flow cytometry (reference value: 1.53 +/- 0.4%); assay type: functional
[18] = system: MIA PaCa-2; assay: Cell cycle arrest in human MIAPaCa2 cells assessed as accumulation at G0/G1 phase at IC50 concentration after 48 hrs by propidium iodide staining based flow cytometry (reference value: 66.05 +/- 2.2%); assay type: functional
[19] = system: MIA PaCa-2; assay: Cell cycle arrest in human MIAPaCa2 cells assessed as accumulation at S phase at IC50 concentration after 48 hrs by propidium iodide staining based flow cytometry (reference value: 17.29 +/- 1.8%); assay type: functional
[20] = system: MIA PaCa-2; assay: Cell cycle arrest in human MIAPaCa2 cells assessed as accumulation at G2/M phase at IC50 concentration after 48 hrs by propidium iodide staining based flow cytometry (reference value: 16.66 +/- 0.8%); assay type: functional

Row | IC50 [7] [µM] | IC50 [8] [µM] | Structure (SMILES) | MBIC50 [1] [µM] | IC50 [2] [µM] | MBIC50 [3] [µM] | IC50 [4] [µM] | MBIC50 [5] [µM] | IC50 [6] [µM] | Activity [9] | Activity [10] | Activity [11] | Activity [12] | Activity [13] [%] | Activity [14] [%] | Activity [15] [%] | Activity [16] [%] | Activity [17] [%] | Activity [18] [%] | Activity [19] [%] | Activity [20] [%]
1 | 1.4 | 3.2 | COc1ccc(Cc2nc(N)n(CC(=O)Nc3ccccc3)c2-c2ccccc2Br)cc1 | 12.6 | 13.1 | 17 | 46.4 | 4.3 | 23.3 | Active | Active | Active | Active | 19.88 | 43.56 | 32.1 | 55.33 | 11.21 | 50.41 | 24.5 | 40.45
2 | 1.3 | 2.9 | Cc1ccc(Cc2nc(N)n(CC(=O)Nc3ccc(C)cc3)c2-c2ccccc2Br)cc1 | 191 | 10.9 | 3.6 | > 400 | 5.5 | 5.8 | Active | Active | Active | Active | 24.71 | 36.34 | 26.59 | 66.85 | 16.33 | 36.39 | 17.04 | 48.99
3 | 2.4 | 5.2 | COc1ccc(Cc2nc(N)n(CC(=O)Nc3ccc(C)cc3)c2-c2ccccc2Br)cc1 | 8.9 | 24.6 | 6.3 | 50.5 | 8.2 | 16.1 |  |  |  |  |  |  |  |  |  |  |  | 
